Source: PubChem BioAssay (NCI)
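Following 48 hours of exposure in 96-well plates, responses at five concentrations were used to interpolate endpoints linearly. GI50 = concentration required for 50% inhibition of growth. At the TGI there is no net growth.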

Assays:
Assay in all cases: DTP human tumour cell line panel, 48 h; in the data active = GI50 below about 0.43 µM; inactive = the rest
SN12C renal = tested on: SN12C renal
COLO 205 colon = tested on: COLO 205 colon
SK-MEL-28 melanoma = tested on: SK-MEL-28 melanoma
NCI-H226 lung = tested on: NCI-H226 lung
NCI-H460 lung = tested on: NCI-H460 lung
SK-MEL-2 melanoma = tested on: SK-MEL-2 melanoma
OVCAR-4 ovarian = tested on: OVCAR-4 ovarian
EKVX NSCLC = tested on: EKVX NSCLC
SF-295 CNS = tested on: SF-295 CNS
786-0 renal = tested on: 786-0 renal
SNB-19 CNS = tested on: SNB-19 CNS
MCF7 breast = tested on: MCF7 breast
MDA-MB-435 = tested on: MDA-MB-435
SF-268 CNS = tested on: SF-268 CNS
OVCAR-3 ovarian = tested on: OVCAR-3 ovarian
TK-10 renal = tested on: TK-10 renal
T-47D breast = tested on: T-47D breast
PC-3 prostate = tested on: PC-3 prostate
SNB-75 CNS = tested on: SNB-75 CNS
ACHN renal = tested on: ACHN renal
HOP-92 NSCLC = tested on: HOP-92 NSCLC
IGROV1 ovarian = tested on: IGROV1 ovarian
HL-60(TB) leukemia = tested on: HL-60(TB) leukemia
MALME-3M melanoma = tested on: MALME-3M melanoma
HS 578T breast = tested on: HS 578T breast
MDA-MB-231 breast = tested on: MDA-MB-231 breast
HCT-15 colon = tested on: HCT-15 colon
CAKI-1 renal = tested on: CAKI-1 renal
UACC-62 melanoma = tested on: UACC-62 melanoma
RPMI-8226 leukemia = tested on: RPMI-8226 leukemia
HOP-62 NSCLC = tested on: HOP-62 NSCLC
SK-MEL-5 melanoma = tested on: SK-MEL-5 melanoma
RXF 393 renal = tested on: RXF 393 renal
SK-OV-3 ovarian = tested on: SK-OV-3 ovarian
NCI/ADR-RES ovarian = tested on: NCI/ADR-RES ovarian
BT-549 breast = tested on: BT-549 breast
HT29 colon = tested on: HT29 colon
CCRF-CEM leukemia = tested on: CCRF-CEM leukemia
OVCAR-5 ovarian = tested on: OVCAR-5 ovarian
OVCAR-8 ovarian = tested on: OVCAR-8 ovarian
MOLT-4 leukemia = tested on: MOLT-4 leukemia
LOX IMVI melanoma = tested on: LOX IMVI melanoma
HCT-116 colon = tested on: HCT-116 colon
NCI-H23 lung = tested on: NCI-H23 lung
HCC-2998 colon = tested on: HCC-2998 colon
A549 NSCLC = tested on: A549 NSCLC
UACC-257 melanoma = tested on: UACC-257 melanoma
KM12 colon = tested on: KM12 colon
SF-539 CNS = tested on: SF-539 CNS
K-562 leukemia = tested on: K-562 leukemia
SW-620 colon = tested on: SW-620 colon
DU-145 prostate = tested on: DU-145 prostate
NCI-H522 lung = tested on: NCI-H522 lung
UO-31 renal = tested on: UO-31 renal
U251 CNS = tested on: U251 CNS
A498 renal = tested on: A498 renal

COc1cc(-n2cc(-c3ccc(F)cc3)[nH]c2=S)cc(OC)c1OC
inactive: GI50 (SN12C renal) > 100 µM | GI50 (COLO 205 colon) > 100 µM | GI50 (SK-MEL-28 melanoma) > 100 µM | GI50 (NCI-H226 lung) > 100 µM | GI50 (NCI-H460 lung) > 100 µM | GI50 (SK-MEL-2 melanoma) > 100 µM | GI50 (OVCAR-4 ovarian) > 100 µM | GI50 (EKVX NSCLC) > 100 µM | GI50 (SF-295 CNS) 47 µM | GI50 (786-0 renal) 63.6 µM | GI50 (SNB-19 CNS) 36.6 µM | GI50 (MCF7 breast) 55.9 µM | GI50 (MDA-MB-435) > 100 µM | GI50 (SF-268 CNS) 32.8 µM | GI50 (OVCAR-3 ovarian) > 100 µM | GI50 (TK-10 renal) > 100 µM | GI50 (T-47D breast) 72.4 µM | GI50 (PC-3 prostate) 80.1 µM | GI50 (SNB-75 CNS) 17.9 µM | GI50 (ACHN renal) > 100 µM | GI50 (HOP-92 NSCLC) 45.5 µM | GI50 (IGROV1 ovarian) 41.6 µM | GI50 (HL-60(TB) leukemia) > 100 µM | GI50 (MALME-3M melanoma) > 100 µM | GI50 (HS 578T breast) 18.3 µM | GI50 (MDA-MB-231 breast) 36.4 µM | GI50 (HCT-15 colon) > 100 µM | GI50 (CAKI-1 renal) 38.1 µM | GI50 (UACC-62 melanoma) > 100 µM | GI50 (RPMI-8226 leukemia) > 100 µM | GI50 (HOP-62 NSCLC) > 100 µM | GI50 (SK-MEL-5 melanoma) > 100 µM | GI50 (RXF 393 renal) 71.4 µM | GI50 (SK-OV-3 ovarian) 38.2 µM | GI50 (NCI/ADR-RES ovarian) > 100 µM | GI50 (BT-549 breast) 58 µM | GI50 (HT29 colon) > 100 µM | GI50 (CCRF-CEM leukemia) > 100 µM | GI50 (OVCAR-5 ovarian) > 100 µM | GI50 (OVCAR-8 ovarian) > 100 µM | GI50 (MOLT-4 leukemia) > 100 µM | GI50 (LOX IMVI melanoma) > 100 µM | GI50 (HCT-116 colon) > 100 µM | GI50 (NCI-H23 lung) > 100 µM | GI50 (HCC-2998 colon) > 100 µM | GI50 (A549 NSCLC) > 100 µM | GI50 (UACC-257 melanoma) > 100 µM | GI50 (KM12 colon) > 100 µM | GI50 (SF-539 CNS) 63.1 µM | GI50 (K-562 leukemia) > 100 µM | GI50 (SW-620 colon) > 100 µM | GI50 (DU-145 prostate) > 100 µM | GI50 (NCI-H522 lung) > 100 µM | GI50 (UO-31 renal) > 100 µM | GI50 (U251 CNS) > 100 µM
> 100 µM: TGI (SN12C renal) | TGI (COLO 205 colon) | TGI (SK-MEL-28 melanoma) | TGI (NCI-H226 lung) | TGI (NCI-H460 lung) | TGI (SK-MEL-2 melanoma) | TGI (OVCAR-4 ovarian) | TGI (EKVX NSCLC) | TGI (SF-295 CNS) | TGI (786-0 renal) | TGI (SNB-19 CNS) | TGI (MCF7 breast) | TGI (MDA-MB-435) | TGI (SF-268 CNS) | TGI (OVCAR-3 ovarian) | TGI (TK-10 renal) | TGI (T-47D breast) | TGI (PC-3 prostate) | TGI (ACHN renal) | TGI (HOP-92 NSCLC) | TGI (IGROV1 ovarian) | TGI (HL-60(TB) leukemia) | TGI (MALME-3M melanoma) | TGI (HS 578T breast) | TGI (MDA-MB-231 breast) | TGI (HCT-15 colon) | TGI (CAKI-1 renal) | TGI (UACC-62 melanoma) | TGI (RPMI-8226 leukemia) | TGI (HOP-62 NSCLC) | TGI (SK-MEL-5 melanoma) | TGI (RXF 393 renal) | TGI (SK-OV-3 ovarian) | TGI (NCI/ADR-RES ovarian) | TGI (BT-549 breast) | TGI (HT29 colon) | TGI (CCRF-CEM leukemia) | TGI (OVCAR-5 ovarian) | TGI (OVCAR-8 ovarian) | TGI (MOLT-4 leukemia) | TGI (LOX IMVI melanoma) | TGI (HCT-116 colon) | TGI (NCI-H23 lung) | TGI (HCC-2998 colon) | TGI (A549 NSCLC) | TGI (UACC-257 melanoma) | TGI (KM12 colon) | TGI (SF-539 CNS) | TGI (K-562 leukemia) | TGI (SW-620 colon) | TGI (DU-145 prostate) | TGI (NCI-H522 lung) | TGI (UO-31 renal) | TGI (U251 CNS)
46.5 µM: TGI (SNB-75 CNS)

CCSc1nc(N2CCCCC2)c2cn[nH]c2n1
71.7 µM: TGI (MCF7 breast)
77.5 µM: TGI (BT-549 breast)
62.4 µM: TGI (T-47D breast)
76.5 µM: TGI (NCI-H460 lung)
97.5 µM: TGI (MALME-3M melanoma)
51.3 µM: TGI (NCI-H226 lung)
32.8 µM: TGI (SK-MEL-5 melanoma)
> 100 µM: TGI (SN12C renal) | TGI (SK-MEL-28 melanoma) | TGI (SK-MEL-2 melanoma) | TGI (OVCAR-4 ovarian) | TGI (EKVX NSCLC) | TGI (SF-295 CNS) | TGI (SNB-19 CNS) | TGI (OVCAR-3 ovarian) | TGI (TK-10 renal) | TGI (SNB-75 CNS) | TGI (ACHN renal) | TGI (HOP-92 NSCLC) | TGI (IGROV1 ovarian) | TGI (HL-60(TB) leukemia) | TGI (HS 578T breast) | TGI (MDA-MB-231 breast) | TGI (HCT-15 colon) | TGI (RPMI-8226 leukemia) | TGI (SK-OV-3 ovarian) | TGI (NCI/ADR-RES ovarian) | TGI (HT29 colon) | TGI (CCRF-CEM leukemia) | TGI (OVCAR-5 ovarian) | TGI (OVCAR-8 ovarian) | TGI (LOX IMVI melanoma) | TGI (NCI-H23 lung) | TGI (HCC-2998 colon) | TGI (A549 NSCLC) | TGI (UACC-257 melanoma) | TGI (KM12 colon) | TGI (K-562 leukemia) | TGI (SW-620 colon) | TGI (NCI-H522 lung) | TGI (UO-31 renal) | TGI (U251 CNS)
65.8 µM: TGI (SF-268 CNS)
75.6 µM: TGI (MDA-MB-435)
56.8 µM: TGI (COLO 205 colon)
92.4 µM: TGI (RXF 393 renal)
59.7 µM: TGI (CAKI-1 renal)
inactive: GI50 (SN12C renal) 25.7 µM | GI50 (COLO 205 colon) 21.3 µM | GI50 (SK-MEL-28 melanoma) 57.6 µM | GI50 (NCI-H226 lung) 15.3 µM | GI50 (NCI-H460 lung) 20.4 µM | GI50 (SK-MEL-2 melanoma) 39.8 µM | GI50 (OVCAR-4 ovarian) 88.3 µM | GI50 (EKVX NSCLC) 16.1 µM | GI50 (SF-295 CNS) 48.2 µM | GI50 (SNB-19 CNS) 45.6 µM | GI50 (A498 renal) 10.5 µM | GI50 (MCF7 breast) 22.8 µM | GI50 (MDA-MB-435) 28.8 µM | GI50 (SF-268 CNS) 23.6 µM | GI50 (OVCAR-3 ovarian) 27.9 µM | GI50 (TK-10 renal) 36.8 µM | GI50 (T-47D breast) 16 µM | GI50 (PC-3 prostate) 20.7 µM | GI50 (SNB-75 CNS) 74.9 µM | GI50 (ACHN renal) 41.2 µM | GI50 (HOP-92 NSCLC) 18.1 µM | GI50 (IGROV1 ovarian) 47 µM | GI50 (HL-60(TB) leukemia) 27.4 µM | GI50 (MALME-3M melanoma) 37.1 µM | GI50 (HS 578T breast) 32.7 µM | GI50 (MDA-MB-231 breast) 11.6 µM | GI50 (HCT-15 colon) > 100 µM | GI50 (CAKI-1 renal) 19.8 µM | GI50 (UACC-62 melanoma) 18.8 µM | GI50 (RPMI-8226 leukemia) 28 µM | GI50 (SK-MEL-5 melanoma) 16.6 µM | GI50 (RXF 393 renal) 24.5 µM | GI50 (SK-OV-3 ovarian) > 100 µM | GI50 (NCI/ADR-RES ovarian) 92.5 µM | GI50 (BT-549 breast) 20.1 µM | GI50 (HT29 colon) 66.3 µM | GI50 (CCRF-CEM leukemia) 34.7 µM | GI50 (OVCAR-5 ovarian) 88.7 µM | GI50 (OVCAR-8 ovarian) 43.6 µM | GI50 (LOX IMVI melanoma) 55.2 µM | GI50 (NCI-H23 lung) 93.2 µM | GI50 (HCC-2998 colon) 42.6 µM | GI50 (A549 NSCLC) 50.5 µM | GI50 (UACC-257 melanoma) 58.7 µM | GI50 (KM12 colon) 29 µM | GI50 (SF-539 CNS) 12.4 µM | GI50 (K-562 leukemia) 38 µM | GI50 (SW-620 colon) 40.1 µM | GI50 (DU-145 prostate) 18.4 µM | GI50 (NCI-H522 lung) 30.7 µM | GI50 (UO-31 renal) 34 µM | GI50 (U251 CNS) 88.3 µM
79.1 µM: TGI (PC-3 prostate)
47.1 µM: TGI (UACC-62 melanoma)
41 µM: TGI (A498 renal)
48.3 µM: TGI (SF-539 CNS)
75.5 µM: TGI (DU-145 prostate)
